Results published in PubChem BioAssay (NCI).
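Where inhibition never reached the appropriate level, the endpoint shown equals the highest concentration tested. Otherwise, values were interpolated linearly from a five-concentration, 48-hour dose response in 96-well plates. At the GI50, growth is halved. TGI marks complete inhibition of growth.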

Legend:
Test in all cases: inhibition of tumour cell growth, NCI panel, 48 h
[1] = tested on: COLO 205 colon
[2] = tested on: EKVX NSCLC
[3] = tested on: HL-60(TB) leukemia
[4] = tested on: MDA-N
[5] = tested on: MOLT-4 leukemia
[6] = tested on: NCI-H226 lung
[7] = tested on: NCI-H522 lung
[8] = tested on: PC-3 prostate
[9] = tested on: SF-295 CNS
[10] = tested on: SN12C renal
[11] = tested on: HCC-2998 colon
[12] = tested on: MDA-MB-231 breast
[13] = tested on: U251 CNS

| SMILES | TGI [1] | TGI [2] | TGI [3] | TGI [4] | TGI [5] | TGI [6] | TGI [7] | TGI [8] | TGI [9] | TGI [10] | TGI [11] | TGI [12] | TGI [13] | GI50 [12] | GI50 [8] |
| --- | --- | --- | --- | --- | --- | --- | --- | --- | --- | --- | --- | --- | --- | --- | --- |
| COc1ccc(C2=NN(c3ccccc3)C(c3cc4cc(Br)ccc4nc3Cl)C2)cc1 (centres undefined) | > 25 µM | > 25 µM | > 25 µM | > 25 µM | > 25 µM | > 25 µM | > 25 µM | > 25 µM | > 25 µM | > 25 µM | – | – | – | – | – |
| Cc1ccc(CS(=O)(=O)C/N=c2\sc3ccccc3nc2/C=C(\O)c2ccc(Cl)cc2)cc1 | > 10 µM | – | – | > 10 µM | > 10 µM | – | > 10 µM | > 10 µM | > 10 µM | > 10 µM | > 10 µM | > 10 µM | > 10 µM | – | – |
| COc1ccccc1S(=O)Nc1ccccc1 (centres undefined) | > 100 µM | > 100 µM | > 100 µM | > 100 µM | > 100 µM | > 100 µM | > 100 µM | – | > 100 µM | > 100 µM | > 100 µM | > 100 µM | > 100 µM | – | – |
| CCCCNC(=O)Nc1c(C(N)=O)c2n(c1C(=O)OCC)CCCCC2 | > 100 µM | > 100 µM | > 100 µM | – | > 100 µM | > 100 µM | – | > 100 µM | > 100 µM | – | > 100 µM | 58.4 µM | > 100 µM | – | – |
| COc1ccc(N[C@H](CS(=O)c2ccc(C)cc2)C(F)(F)C(F)(F)F)cc1 (some centres undefined) | > 100 µM | > 100 µM | > 100 µM | > 100 µM | > 100 µM | > 100 µM | > 100 µM | – | > 100 µM | > 100 µM | > 100 µM | – | > 100 µM | – | – |
| O=C1CC(=O)c2c(Cl)sc(Cl)c21 | > 100 µM | > 100 µM | 85.6 µM | > 100 µM | > 100 µM | > 100 µM | 47.1 µM | – | > 100 µM | > 100 µM | – | > 100 µM | > 100 µM | – | – |
| Cc1ccc2[nH]c3[nH]c(=O)[nH]c(=O)c3c2c1 | > 100 µM | > 100 µM | > 100 µM | > 100 µM | > 100 µM | > 100 µM | > 100 µM | – | > 100 µM | > 100 µM | – | – | – | – | – |
| CN1CCN(C(=S)N(C(=O)c2ccco2)c2ccccc2)CC1 | > 100 µM | – | > 100 µM | > 100 µM | > 100 µM | > 100 µM | > 100 µM | – | > 100 µM | > 100 µM | > 100 µM | > 100 µM | > 100 µM | – | – |
| CN(C)CC(CO)(CN(C)C)CN(C)C | > 100 µM | > 100 µM | > 100 µM | > 100 µM | > 100 µM | > 100 µM | > 100 µM | > 100 µM | > 100 µM | > 100 µM | – | – | > 100 µM | – | – |
| CC(=O)[O-].CC(=O)[O-].[NH2-].[Pt+2].c1ccncc1 | > 100 µM | – | 43.7 µM | – | 27.3 µM | > 100 µM | 44.2 µM | > 100 µM | > 100 µM | > 100 µM | > 100 µM | > 100 µM | > 100 µM | > 100 µM | > 100 µM |
| C=C(C)[C@@]1(O)CCC[C@H]1NC(=O)OC(C)(C)C | > 100 µM | > 100 µM | – | > 100 µM | – | > 100 µM | > 100 µM | > 100 µM | > 100 µM | > 100 µM | > 100 µM | > 100 µM | > 100 µM | – | – |
| CC(C)[Si](OC1=C(C(=O)N(C)c2ccccc2Cl)CCC1)(C(C)C)C(C)C | 34.3 µM | 31.1 µM | – | 38.8 µM | > 100 µM | 40.3 µM | 28.6 µM | – | 27.6 µM | 31.6 µM | – | 30.9 µM | 31.1 µM | – | – |
| COc1ccc(C(C2C(=O)N(C)C(=O)N(C)C2=O)C(F)(F)C(=O)N(C)C)cc1 (centres undefined) | > 100 µM | > 100 µM | – | – | – | > 100 µM | – | > 100 µM | > 100 µM | – | > 100 µM | > 100 µM | > 100 µM | – | – |
| COC(=O)C1C2C=CC(C2)N1S(=O)(=O)c1ccccc1 (centres undefined) | > 100 µM | – | – | > 100 µM | > 100 µM | – | > 100 µM | > 100 µM | > 100 µM | > 100 µM | – | > 100 µM | > 100 µM | – | – |
| O=c1cc(CC(O)(C(F)(F)Cl)C(F)(F)Cl)[nH]n1-c1ccccc1 | > 100 µM | > 100 µM | > 100 µM | – | > 100 µM | > 100 µM | – | – | > 100 µM | > 100 µM | > 100 µM | > 100 µM | > 100 µM | – | – |
| Oc1c(-c2ccccc2)sc2ccccc12 | 28.2 µM | 86.6 µM | 45.4 µM | – | 88.6 µM | 64.4 µM | > 100 µM | 69.1 µM | 45.7 µM | – | 39 µM | 29.1 µM | > 100 µM | – | – |
| O=c1cc(-c2ccccc2)oc2ccc(Oc3nnnn3-c3ccccc3)cc12 | > 100 µM | > 100 µM | > 100 µM | > 100 µM | > 100 µM | > 100 µM | > 100 µM | > 100 µM | > 79.9 µM | > 100 µM | > 100 µM | – | > 74.7 µM | – | – |
